Laboratory results: patent US20110314564A1, “ENZYMES AND METHODS FOR HYDROLYSING PHENYLUREAS, CARBAMATES AND ORGANOPHOSPHATES” (priority 2008, published 2011)

Tests used:
PuhA = PuhA (Arthrobacter globiformis, UniProt B8R4L9); assay: Hydrolysis of phenylurea, carbamate and organophosphate substrates by purified PuhA (LCMS / FBBS / A400 assays)
PuhB = PuhB (Mycolicibacterium brisbanense, UniProt B8R4K0); assay: Hydrolysis of phenylurea, carbamate and organophosphate substrates by purified PuhB (LCMS / FBBS / A400 assays)
Chain of PuhB (B8R4K0 entry or part of it): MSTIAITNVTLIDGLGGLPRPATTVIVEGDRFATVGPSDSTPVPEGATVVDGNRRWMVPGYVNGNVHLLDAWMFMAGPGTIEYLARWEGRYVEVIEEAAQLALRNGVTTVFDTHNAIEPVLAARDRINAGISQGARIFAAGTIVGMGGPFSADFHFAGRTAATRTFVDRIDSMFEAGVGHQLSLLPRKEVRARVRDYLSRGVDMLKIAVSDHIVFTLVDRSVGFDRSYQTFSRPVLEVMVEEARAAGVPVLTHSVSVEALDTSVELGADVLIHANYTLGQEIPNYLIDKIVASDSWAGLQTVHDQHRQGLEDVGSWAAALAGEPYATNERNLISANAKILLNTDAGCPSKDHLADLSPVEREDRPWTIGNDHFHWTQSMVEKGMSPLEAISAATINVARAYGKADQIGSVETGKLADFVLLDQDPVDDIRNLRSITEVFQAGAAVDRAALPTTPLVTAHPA

[1] = test system: CN(C)C(=O)Nc1ccc(Cl)c(Cl)c1; assay: purified protein, by the assay type; conditions: pH 6.9, 25.0 °C
[2] = Stability in the presence of the solvents acetonitrile and methanol; assay type: biochemical; conditions: 1-18% v/v solvent
Method: (§1) The influence of solvents (acetonitrile and methanol) was examined by using 7 concentrations from 0.4-18.2% over 1 hour duplicate assays with 77 μM diuron and monitored by LCMS. The effect of temperature on the activity of the enzymes was determined in two ways: firstly, the temperature at which reaction was catalysed was controlled at 12 temperatures ranging from 2-60° C. with 154 μM diuron; secondly, enzyme was preincubated at 6 temperatures from 30-55° C. for 10 minutes prior to 1 hour assays at 25° C. The residual activity data was obtained by LCMS and fitted to the Boltzmann function (eq 1)

[3] = Activity of PuhA and PuhB expressed in M. smegmatis at each purification step (PNP release); assay type: biochemical
Method: (§2) Pwo polymerase (Roche) and restriction enzymes NdeI, BamHI and HindIII (Fermentas) were used following manufacturers' protocols. Electro-competent E. coli strains JM109 (Promega) were utilised for transformation of ligation reactions (using Promega ligase). Protein expressions in E. coli were inoculated (1% v/v) with an overnight seed culture in LB and then incubated with shaking at 20° C. for 11 hours followed by induction with 0.1 mM isopropyl-β-D-thiogalactopyranoside (IPTG) for 3 hours. M. smegmatis expressions were amended with 0.05% tween 80 and grown in LB at 28° C. for 2-4 days with no induction. Clarified cell-free extracts were obtained by resuspending the bacteria in 25 mM Tris (pH 8) followed by 3 passes through a French pressure cell (Thermo) and centrifugation at 27,000 g (Beckman Avanti).
(§3) Protein concentration was estimated using the Bio-rad protein assay (Bradford), with bovine serum albumin used as standard. Protein purity was monitored using sodium dodecyl sulphate-polyacrylamide gel electrophoresis (SDS-PAGE) stained with Coomassie brilliant blue. Where PuhA and B concentrations were estimated in semi purified extracts, SDS-PAGE gels were scanned using Labscan v5 (Amersham Biosciences) and band densitometry performed with Total lab TL100 (Nonlinear dynamics). Talon cobalt resin (BD Biosciences) was used for the purification of hexa-histidine tagged protein. Untagged protein was purified by ammonium sulfate (AS) precipitiation followed by hydrophobic interaction chromatography (HIC; Phenylsepharose), anion exchange chromatography (AEX; Macro Q) and size exclusion chromatography (SEC; Superose 6 or Sephadex 200). All columns were purchased from GE Healthcare. The hydrophobic interaction column was equilibrated with Tris (pH 8)/1 M ammonium sulfate and bound protein was then eluted with Tris (pH 8) over 400 mL. Protein was bound to the anion exchange column with Tris (pH 8) and eluted with a gradient of Tris (pH 8)/1 M NaCl over 500 mL. The buffer was exchanged to 25 mM HEPES/50 mM KCl (pH 8) during SEC and the protein was stable in this buffer at 4° C. for several weeks. The oligomeric structure was estimated with a Superose 6 size exclusion column calibrated with the following protein standards (kDa): thyroglobulin (669), ferritin (440), catalase (232) and aldolase (158). Standard tryptic peptide mass fingerprinting was used to confirm the identity of proteins excised from polyacrylamide gels by liquid chromatography electro spray ionisation mass spectroscopy/mass spectroscopy (LC ESI MS/MS) ion trap following the method of Campbell et al. (2008).

[4] = Diuron hydrolase activity in the soluble fraction of recombinant expression hosts; assay type: biochemical
Description: PuhA and PuhB were amplified as N-hexa-histidine tagged fusions from pET14b (Novagen) in E. coli rosetta II cells (Novagen) and pMV261 (Stover et al., 1991) in M. smegmatis mc2. Protein without hexa-histidine tags was later expressed in M. smegmatis mc2. The PCR primers used in these cloning procedures are noted in Table 2 (SEQ ID NOs 5 to 13).
as §2

[5] = Activity of native PuhA and PuhB at each purification step (DCA formation); assay type: biochemical
Description: as §3

[6] = Bronsted plots (pKa of leaving group vs log kcat) for N-dimethyl phenylureas; assay type: biochemical; conditions: slope between pKa 4-5
Description: (§4) was used to fit an activity y, either log(kcat) and log(kcat/Km) vs. pH. (y)^max is the plateau value and pKa^1 and pKa^2 are the apparent pKa values for the acidic and basic groups, respectively. Equations were fitted to the data using Kaleidagraph v3.6 (Synergy Software). The substrate pKa values were obtained via an online database www.syrres.com/esc/physdemo.htm (Syracuse Research Corporation).

[7] = Thermal stability: residual activity after 10 minutes pre-incubation, Boltzmann fit; assay type: biochemical
Method: as §1
(§5) A bell shaped model (eq 2)

[8] = pH dependence of kcat, kcat/Km and Km with diuron in constant ionic strength buffer; assay type: biochemical
Description: as §5, §4

## CNC(=O)N(C)c1nnc(C(C)(C)C)s1 [tebuthiuron]
PuhA; PuhA
  hydrolysis / turnover of the substrate (in words): no detectable hydrolysis
PuhB; PuhB
  hydrolysis / turnover of the substrate (in words): no detectable hydrolysis

## CN(C)C(=O)Oc1ccc([N+](=O)[O-])cc1 [DMNPC, N-dimethyl, O-4-nitrophenyl carbamate]
PuhA; PuhA
  hydrolysis / turnover of the substrate (in words): turned over at a higher efficiency than poor phenylurea substrates
PuhB; PuhB
  hydrolysis / turnover of the substrate (in words): turned over at a higher efficiency than poor phenylurea substrates

## CCN(CC)C(=O)SCc1ccc(Cl)cc1 [thiobencarb]
PuhA; PuhA
  hydrolysis / turnover of the substrate (in words): neither enzyme catalysed the hydrolysis
PuhB; PuhB
  hydrolysis / turnover of the substrate (in words): neither enzyme catalysed the hydrolysis

## CCOP(=O)(OCC)Oc1ccc([N+](=O)[O-])cc1 [paraoxon ethyl]
PuhA; PuhA
  hydrolysis / turnover of the substrate (in words): only slightly lower than isoproturon
PuhA; PuhA, listed as ethyl paraoxon
  hydrolysis / turnover of the substrate (in words): turned over by both proteins
PuhB; PuhB
  hydrolysis / turnover of the substrate (in words): only slightly lower than isoproturon
PuhB; PuhB, listed as ethyl paraoxon
  hydrolysis / turnover of the substrate (in words): turned over by both proteins

## PuhA (Arthrobacter globiformis)
[1]; other: PuhA
  Km: 55.0 µM

## CCCCN(C)C(=O)Nc1ccc(Cl)c(Cl)c1 [neburon]
PuhA; PuhA
  hydrolysis / turnover of the substrate (in words): no detectable hydrolysis
PuhB; PuhB
  hydrolysis / turnover of the substrate (in words): no detectable hydrolysis

## O=C(Nc1ccccc1)Nc1cnns1 [thidiazuron]
PuhA; PuhA
  hydrolysis / turnover of the substrate (in words): no detectable hydrolysis
PuhB; PuhB
  hydrolysis / turnover of the substrate (in words): no detectable hydrolysis

## CN(C)C(=O)Nc1ccc(-n2nc(C(C)(C)C)oc2=O)c(Cl)c1 [dimefuron]
PuhA; PuhA
  hydrolysis / turnover of the substrate (in words): no detectable hydrolysis
PuhB; PuhB
  hydrolysis / turnover of the substrate (in words): no detectable hydrolysis

## PuhB (Mycolicibacterium brisbanense)
[1]; other: PuhB
  Km: 11.0 µM

## CC1CCCCC1NC(=O)Nc1ccccc1 (stereo not drawn) [siduron]
PuhA; PuhA
  hydrolysis / turnover of the substrate (in words): no detectable hydrolysis
PuhB; PuhB
  hydrolysis / turnover of the substrate (in words): no detectable hydrolysis

## CON(C)C(=O)Nc1ccc(Cl)c(Cl)c1 [linuron]
PuhA; enzyme not given
  turnover rate (kcat), fold higher than that of diuron: ~9 fold
PuhB; enzyme not given
  turnover rate (kcat), fold higher than that of diuron: ~9 fold

## CNC(=O)Oc1cccc2ccccc12 [carbaryl]
PuhA; PuhA
  hydrolysis / turnover of the substrate (in words): neither enzyme catalysed the hydrolysis
PuhB; PuhB
  hydrolysis / turnover of the substrate (in words): neither enzyme catalysed the hydrolysis

## CON(C)C(=O)Oc1ccc(Cl)c(Cl)c1 [carbamate analogue of linuron, 3,4-dichlorophenyl N-methoxy-N-methylcarbamate]
PuhA; PuhA
  hydrolysis / turnover of the substrate (in words): as efficiently as the phenylurea
PuhB; PuhB
  hydrolysis / turnover of the substrate (in words): as efficiently as the phenylurea

## Cc1nc(N(C)C)nc(OC(=O)N(C)C)c1C [pirimicarb]
PuhA; PuhA
  catalytic efficiency, fold lower than diuron: 10^4 fold
  hydrolysis / turnover of the substrate (in words): slowly turned over
PuhB; PuhB
  catalytic efficiency, fold lower than diuron: 10^3 fold
  hydrolysis / turnover of the substrate (in words): slowly turned over

B1: PuhA: phenylurea hydrolase from A. globiformis D47, amino acid sequence SEQ ID NO:3 (protein)
chain: MTTTAITDITLIDGRGGAPERGVTVLVDEDRFSAIGPTATTPIPDGARVVGGAGRWMVPGYVNGNVHLLDAWMFMVGPGTIEYLARWEGRYVEVIEEAAQLVLRNGVTTVFDTYNAIEPVLAARDRINAGTSAGARIFAAGTIVGLGGPFSADFHFIGQQAASRTFVNRIDAMFEAGVGHQLSLLPRNEVRSRVRDYLARGVDMLKIAVSDHIVFTVGFDRSCQTFSRPVLEVMFEEARAAGVPVLTHSVSVEALDTSVDLGADVLIHANYTLGQHIPDYLIDKIAASDSYAGLQTVHHEHREGLERVGSWAATLAGEPYASNERALIRAKAKILMNTDAGCPSKDHLADLSPAEREDRPWTIGGDHFHWTQSIVEKGMTPLEAISAATLNVARAYGKDADIGSVETGKLADFVLLDADPTADIRHLRSISAVYQAGVAVDRGALPTTPLVTAHPA
modifications: Arthrobacter globiformis D47
[2]
  activity in the presence of methanol and acetonitrile (in words): significantly inhibited
[3]; AEX
  Activity (mM PNP/mg/min): 6.2 mM PNP/mg/min
[3]; CFE
  Activity (mM PNP/mg/min): 0.3 mM PNP/mg/min
[3]; HIC
  Activity (mM PNP/mg/min): 4.3 mM PNP/mg/min
[3]; SEC
  Activity (mM PNP/mg/min): 7.8 mM PNP/mg/min
[4]; expressed in E. coli Rosetta 2 DE3 from pET14b
  specific activity in the soluble fraction, fold lower compared to the native expression: ~10 fold
[4]; expressed in M. smegmatis from pMV261
  activity in the soluble fraction (in words): comparable to that measured in the native expressions
[5]; AS (ammonium sulfate)
  Activity (nmol DCA/μg/hour): 0.18 nmol DCA/μg/hour
[5]; CFE (cell free extract)
  Activity (nmol DCA/μg/hour): 0.05 nmol DCA/μg/hour
[5]; HIC
  Activity (nmol DCA/μg/hour): 0.73 nmol DCA/μg/hour
  Estimated specific activity (mol/mol/min): 10.20 mol/mol/min
[5]; SEC
  Activity (nmol DCA/μg/hour): 2.79 nmol DCA/μg/hour
  Estimated specific activity (mol/mol/min): 7.02 mol/mol/min
[6]
  βlg: −1.6
[7]; 10 minutes incubation at 40° C.
  residual activity after incubation (in words): retaining significant activity
[7]; 10 minutes pre-incubation, then 1 hour assay at 25° C.
  Tm indicating 50% activity retained: 46.6 °C
[8]; acidic shoulder
  pKe1: 4.2
  pKes1: 5.1
[8]; basic shoulder
  pKe2: 8.9
  pKes2: 10.2
[8]; basic side
  pKe of the decrease in catalytic efficiency: ~10
